The target of the assay is T1, PD-1/PD-L1 protein/protein interaction (Homo sapiens, UniProt Q9NZQ7).
T1 construct: Recombinant human PD-L1 protein (19-238) with a His-tag at the C-terminus; purchased AcroBiosystems PD1-H5229 (PD-L1); PD1-H5257 (PD-1)
Nature of the assay: PD-1/PD-L1 homogenous time-resolved fluorescence (HTRF) binding assay. The method, then: Resolved Fluorescence (HTRF) Binding Assay
The assays were conducted in a standard black 384-well polystyrene plate with a final volume of […]. Inhibitors were first serially diluted in DMSO and then added to the plate wells before the addition of other reaction components. The final concentration of DMSO in the assay was 1%. The assays were carried out at 25° C. in the PBS buffer (pH 7.4) with 0.05% Tween-20 and 0.1% BSA. […] Plates were centrifuged and proteins were preincubated with inhibitors for 40 min. The incubation was followed by the addition of 10 μL of HTRF detection buffer supplemented with Europium cryptate-labeled anti-human IgG (PerkinElmer-AD0212) specific for Fc and anti-His antibody conjugated to SureLight®—Allophycocyanin (APC, PerkinElmer-AD0059H). After centrifugation, the plate was incubated at 25° C. for 60 min. […] Final concentrations in the assay were […] PD1, 10 nM PD-L1, 1 nM europium anti-human IgG and 20 nM anti-His-Allophycocyanin. IC50 determination was performed by fitting the curve of percent control activity versus the log of the inhibitor concentration using the GraphPad Prism 5.0 software.

The mark [1] stands for this setting: HTRF, recombinant human PD-1 (Fc tag) / PD-L1 (His-tag), 25° C., PBS pH 7.4, read-out: IC50.

pIC50: −log10 of the molar value. Read-outs that look alike come from different tables or passages of the source. Where only a bound is given, the exact number is not on record here.

T1 sequence (Q9NZQ7 19-238): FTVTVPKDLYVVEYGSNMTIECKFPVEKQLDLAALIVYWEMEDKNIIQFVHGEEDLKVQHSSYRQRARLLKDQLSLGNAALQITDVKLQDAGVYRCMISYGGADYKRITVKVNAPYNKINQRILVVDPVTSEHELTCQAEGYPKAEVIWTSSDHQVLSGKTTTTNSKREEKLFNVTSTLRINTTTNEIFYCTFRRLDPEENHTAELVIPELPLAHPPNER

Regarding `Cc1c(Nc2nccc3cc(CNCC(=O)O)cnc23)cccc1-c1ccccc1` [Compound 2, ((8-((2-methyl-[1,1′-biphenyl]-3-yl)amino)-1,7-naphthyridin-3-yl)methyl)glycine], under setting [1], the pIC50 is 8.52. The molecule `Cc1c(Nc2nccc3cc(CN4CCCCC4C(=O)O)cnc23)cccc1-c1cccc(OCC2(CN3CCOCC3)CC2)c1C` (centres unmarked) [Compound 54, 1-((8-((2,2′-dimethyl-3′-((1-(morpholinomethyl)cyclopropyl)methoxy)-[1,1′-biphenyl]-3-yl)amino)-1,7-naphthyridin-3-yl)methyl)piperidine-2-carboxylic acid] had a pIC50 of 8.00 to 8.70. The molecule `Cc1c(Nc2nccc3cc(CN4CCCCC4C(=O)O)cnc23)cccc1-c1ccc2ccc(OCCN3CCOCC3)cc2c1` (centres unmarked) [Compound 32, 1-((8-((2-methyl-3-(7-(2-morpholinoethoxy)naphthalen-2-yl)phenyl)amino)-1,7-naphthyridin-3-yl)methyl)piperidine-2-carboxylic acid] showed a pIC50 of under 6.82. `Cc1c(Nc2nccc3cc(CN4CCCCC4C(=O)O)cnc23)cccc1-c1cccc(OCCCN2CCCC2C(=O)O)c1C` (centres unmarked) [Compound 29, 1-((8-((3′-(3-(2-carboxypyrrolidin-1-yl)propoxy)-2,2′-dimethyl-[1,1′-biphenyl]-3-yl)amino)-1,7-naphthyridin-3-yl)methyl)piperidine-2-carboxylic acid] had a pIC50 of 8.00 to 8.70. The same measure, in the same setting: as for `Cc1c(Nc2nccc3cc(CN4CCCCC4C(=O)O)cnc23)cccc1-c1cccc(OCCCN2CCC(C(=O)O)CC2)c1C` (centres unmarked) [Compound 30, 1-((8-((3′-(3-(4-carboxypiperidin-1-yl)propoxy)-2,2′-dimethyl-[1,1′-biphenyl]-3-yl)amino)-1,7-naphthyridin-3-yl)methyl)piperidine-2-carboxylic acid], the figure is 8.00 to 8.70; as for `Cc1c(Nc2nccc3cc(CN4CCCCC4C(=O)O)cnc23)cccc1-c1ccc(F)c(OCCCN2CCOCC2)c1` (centres unmarked) [Compound 40, 1-((8-((4′-fluoro-2-methyl-3′-(3-morpholinopropoxy)-[1,1′-biphenyl]-3-yl)amino)-1,7-naphthyridin-3-yl)methyl)piperidine-2-carboxylic acid], 8.00 to 8.70. `Cc1c(Nc2nccc3cc(CNCCCC(=O)O)cnc23)cccc1-c1cccc(OCCCN2CCOCC2)c1C` [Compound 8, 4-(((8-((2,2′-dimethyl-3′-(3-morpholinopropoxy)-[1,1′-biphenyl]-3-yl)amino)-1,7-naphthyridin-3-yl)methyl)amino)butanoic acid]: the pIC50 under setting [1] was 9.05.

The molecule `Cc1c(Nc2nccc3cc(CN4CCCCC4C(=O)O)cnc23)cccc1-c1cccc(OCCN2CCOCC2)c1C` (centres unmarked) [Compound 31, 1-((8-((2,2′-dimethyl-3′-(2-morpholinoethoxy)-[1,1′-biphenyl]-3-yl)amino)-1,7-naphthyridin-3-yl)methyl)piperidine-2-carboxylic acid] had a negative-log IC50 (pIC50) of 6.82 to 8.00. With `Cc1c(Nc2nccc3cc(CN4CCCCC4C(=O)O)cnc23)cccc1-c1cccc(OCCCNC(=N)N)c1C` (centres unmarked) [Compound 26, 1-((8-((3′-(3-guanidinopropoxy)-2,2′-dimethyl-[1,1′-biphenyl]-3-yl)amino)-1,7-naphthyridin-3-yl)methyl)piperidine-2-carboxylic acid], the pIC50 was under 6.82.

In turn, `Cc1c(Nc2nccc3cc(CN(C)CC(=O)O)cnc23)cccc1-c1cccc(OCCCN2CCOCC2)c1C` [Compound 11, N-((8-((2,2′-dimethyl-3′-(3-morpholinopropoxy)-[1,1′-biphenyl]-3-yl)amino)-1,7-naphthyridin-3-yl)methyl)-N-methylglycine] gave a pIC50 of 8.00 to 8.70. Same read-out and setting: then `Cc1c(Nc2nccc3cc(CN4CC(C(=O)O)C4)cnc23)cccc1-c1cccc(OCCCN2CCOCC2)c1C` [Compound 15, 1-((8-((2,2′-dimethyl-3′-(3-morpholinopropoxy)-[1,1′-biphenyl]-3-yl)amino)-1,7-naphthyridin-3-yl)methyl)azetidine-3-carboxylic acid], with over 8.70; and `Cc1c(Nc2nccc3cc(CN4CCCCC4C(=O)O)cnc23)cccc1-c1cccc(OCCCNS(C)(=O)=O)c1C` (centres unmarked) [Compound 27, 1-((8-((2,2′-dimethyl-3′-(3-(methylsulfonamido)propoxy)-[1,1′-biphenyl]-3-yl)amino)-1,7-naphthyridin-3-yl)methyl)piperidine-2-carboxylic acid], with under 6.82. The same measure, in the same setting: then `Cc1c(Nc2nccc3cc(CNCC(=O)O)cnc23)cccc1-c1cccc(OCCCN2CCOCC2)c1Cl` [Compound 45, ((8-((2′-chloro-2-methyl-3′-(3-morpholinopropoxy)-[1,1′-biphenyl]-3-yl)amino)-1,7-naphthyridin-3-yl)methyl)glycine], with over 8.70; and `Cc1c(CCCCN2CCOCC2)cccc1-c1cccc(Nc2nccc3cc(CN4CCCCC4C(=O)O)cnc23)c1C` (centres unmarked) [Compound 58, 1-((8-((2,2′-dimethyl-3′-(4-morpholinobutyl)-[1,1′-biphenyl]-3-yl)amino)-1,7-naphthyridin-3-yl)methyl)piperidine-2-carboxylic acid], with 8.00 to 8.70. Still for that read-out and setting: then `Cc1c(NCCCN2CCOCC2)cccc1-c1cccc(Nc2nccc3cc(CN4CCCCC4C(=O)O)cnc23)c1C` (centres unmarked) [Compound 48, 1-((8-((2,2′-dimethyl-3′-((3-morpholinopropyl)amino)-[1,1′-biphenyl]-3-yl)amino)-1,7-naphthyridin-3-yl)methyl)piperidine-2-carboxylic acid], with 8.00 to 8.70; and `Cc1c(Nc2nccc3cc(CN4CCCCC4C(=O)O)cnc23)cccc1-c1cccc(OCCCN2CCCCC2)c1C` (centres unmarked) [Compound 16, 1-((8-((2,2′-dimethyl-3′-(3-(piperidin-1-yl)propoxy)-[1,1′-biphenyl]-3-yl)amino)-1,7-naphthyridin-3-yl)methyl)piperidine-2-carboxylic acid], with over 8.70. In turn, `Cc1c(Nc2nccc3cc(CN4CCCCC4C(=O)O)cnc23)cccc1-c1cccc(N(C)C(=O)CCN2CCOCC2)c1C` (centres unmarked) [Compound 50, 1-((8-((2,2′-dimethyl-3′-(N-methyl-3-morpholinopropanamido)-[1,1′-biphenyl]-3-yl)amino)-1,7-naphthyridin-3-yl)methyl)piperidine-2-carboxylic acid] gave a pIC50 of under 6.82.

With `COc1ccc(-c2cccc(Nc3nccc4cc(CN5CCCCC5C(=O)O)cnc34)c2C)cc1OCCCN1CCOCC1` (centres unmarked) [Compound 59, 1-((8-((4′-methoxy-2-methyl-3′-(3-morpholinopropoxy)-[1,1′-biphenyl]-3-yl)amino)-1,7-naphthyridin-3-yl)methyl)piperidine-2-carboxylic acid], the pIC50 is 8.00 to 8.70. The same measure, in the same setting: then `CCN(CC)CCCOc1cccc(-c2cccc(Nc3nccc4cc(CN5CCCCC5C(=O)O)cnc34)c2C)c1C` (centres unmarked) [Compound 21, 1-((8-((3′-(3-(diethylamino)propoxy)-2,2′-dimethyl-[1,1′-biphenyl]-3-yl)amino)-1,7-naphthyridin-3-yl)methyl)piperidine-2-carboxylic acid], with over 8.70; and `Cc1c(Nc2nccc3cc(CN4CCCCC4C(=O)O)cnc23)cccc1-c1ccc2cc(CCN3CCOCC3)[nH]c2c1` (centres unmarked) [Compound 35, 1-((8-((2-methyl-3-(2-(2-morpholinoethyl)-1H-indol-6-yl)phenyl)amino)-1,7-naphthyridin-3-yl)methyl)piperidine-2-carboxylic acid], with under 6.82. The same measure, in the same setting: as for `Cc1ccc(-c2cccc(Nc3nccc4cc(CN5CCCCC5C(=O)O)cnc34)c2C)c(C)c1OCCCN1CCOCC1` (centres unmarked) [Compound 41, 1-((8-((2,2′,4′-trimethyl-3′-(3-morpholinopropoxy)-[1,1′-biphenyl]-3-yl)amino)-1,7-naphthyridin-3-yl)methyl)piperidine-2-carboxylic acid], the figure is under 6.82. Same read-out and setting: then `Cc1c(Nc2nccc3cc(CN4CC(F)(F)CC4C(=O)O)cnc23)cccc1-c1cccc(OCCCN2CCOCC2)c1C` (centres unmarked) [Compound 12, 1-((8-((2,2′-dimethyl-3′-(3-morpholinopropoxy)-[1,1′-biphenyl]-3-yl)amino)-1,7-naphthyridin-3-yl)methyl)-4,4-difluoropyrrolidine-2-carboxylic acid], with 6.82 to 8.00. Consider `Cc1c(Nc2nccc3cc(CN4CCCCC4C(=O)O)cnc23)cccc1-c1cccc(OCCCNCC(=O)O)c1C` (centres unmarked) [Compound 28, 1-((8-((3′-(3-((carboxymethyl)amino)propoxy)-2,2′-dimethyl-[1,1′-biphenyl]-3-yl)amino)-1,7-naphthyridin-3-yl)methyl)piperidine-2-carboxylic acid], for which the pIC50 is over 8.70. `Cc1c(Nc2nccc3cc(CN4CCCCC4C(=O)O)cnc23)cccc1-c1cccc(OCCCN2CCOCC2)c1C` (centres unmarked) [Compound 5] showed a negative-log IC50 (pIC50) of 8.48. Moreover, the “biological activity (potency), as shown in Table 1” value (R is the group comprising morpholine) is “much more potent”. On to `Cc1c(Nc2nccc3cc(CN4CC(O)CC4C(=O)O)cnc23)cccc1-c1cccc(OCCCN2CCOCC2)c1C` (centres unmarked) [Compound 6, 1-((8-((2,2′-dimethyl-3′-(3-morpholinopropoxy)-[1,1′-biphenyl]-3-yl)amino)-1,7-naphthyridin-3-yl)methyl)-4-hydroxypyrrolidine-2-carboxylic acid], for which, under setting [1], the negative-log IC50 (pIC50) was 8.55.

For the origin of these results see patent publication US20210269440A1 (BETTA PHARMACEUTICALS CO., LTD, priority 2018, published 2021).
